Results published in patent publication US12440467B2, “Treatment and prevention of infections using vegetable oil-derived polyols” (priority 2021, dated 2025).

Molecular target: T1, CD4-gp120 complex (Human immunodeficiency virus type 1 group M subtype B, UniProt P04578)
T1 construct: recombinant gp120 (5 μg, Sigma-Aldrich); purchased Sigma-Aldrich (gp120); R&D Systems (CD4)
Assay: Immunoprecipitation / Western blot of CD4-gp120 complex formation
Format: binding, HIV
Conditions: increasing concentration, Polyol:CD4-gp120 1:1000, 1:100, 1:10; polyol alone
Protocol: Immunoprecipitation studies conducted in the presence or absence of the linseed oil-derived polyol were performed to evaluate the impact of the polyol on the formation of the CD4-gp120 complex. A commercially available immunoprecipitation kit consisting of protein G-coated agarose beads (Invitrogen) was used, and immunoprecipitations were conducted according to the manufacturer's protocol. Briefly, the gp120 antibody (5 μg, Sigma-Aldrich) was bound to the protein G-coated agarose beads (50 μl) by placing the antibody and protein G agarose beads in 1.5 ml Eppendorf centrifuge tubes and incubated at room temperature for 10 minutes with rotation. The tubes were placed on the magnet (Life Technologies) and the supernatant was removed. […] The samples were heated for 5 minutes at 95° C., then placed on the magnet, the supernatants were collected and analyzed via western blot. […]
A standard western blot technique was used to evaluate the impact of the polyol on CD4-gp120 complex formation. […] Protein bands on the membrane were detected by chemiluminescence (Femto, ThermoFisher) and imaged on X-ray film (ThermoFisher). The blotted protein was quantified using the Image J software to measure the density, and the values were normalized to an untreated sample.
The inhibitory effect of the linseed oil-derived polyol on the formation of CD4 and […] complex was evaluated with immunoprecipitation (IP). […]

CCC(O)C(O)CC(O)C(O)CC=CCCCCCCCC(=O)OC (stereo not shown) [linseed oil-derived polyol]
effect on CD4-gp120 complex formation (gp120 bands): reduced the CD4-gp120 complex formation
